{
  "source": "paper PMC12036814",
  "about": "(Angewandte Chemie (International Ed. in English), 2025)",
  "key": {"RAP1A": {"target": "T1, RAP1A (Homo sapiens, UniProt P62834)", "T1 construct": "endogenous in cells; host or cells: HEK293", "T1 sequence (P62834 1-184)": "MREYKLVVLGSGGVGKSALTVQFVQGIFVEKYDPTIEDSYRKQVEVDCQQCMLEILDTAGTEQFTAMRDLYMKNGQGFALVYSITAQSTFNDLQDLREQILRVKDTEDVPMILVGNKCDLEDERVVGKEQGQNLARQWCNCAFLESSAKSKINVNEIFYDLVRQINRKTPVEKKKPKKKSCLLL", "assay": "Thermal protein profiling (TPP) in intact HEK293 cells", "format": "cell-based", "details": "1 h", "experimental": "(§1) incubated in a thermoshaker (600 rpm, 16 h, 37 °C). The digest was stopped by adding 10 μL formic\n(§2) acid (FA) and vortexing followed by centrifugation (12,000 ×g, 3 min, room temperature). 50 mg\n(§3) SepPak C18 columns (Waters, Milford, USA, Cat# WAT054960) were equilibrated by gravity flow two\n(§4) times with 1 mL acetonitrile and three times with 1 mL aqueous 0.1% trifluoroacetic acid (TFA) solution.\n(§5) Subsequently, the samples were loaded by gravity flow, washed three times with 1 mL aqueous 0.1%\n(§6) TFA solution and once with 0.5 mL aqueous 0.5% formic acid (F A) solution. Elution of peptides into\n(§7) new 2.0 mL Protein LoBind Eppendorf tubes was performed by two times addition of 250 μL elution\n(§8) buffer (80% acetonitrile, 0.5% FA) by gravity flow followed by 250 μL elution buffer by vacuum flow\n(§9) until all liquid was eluted from the column. The eluates were lyophilized. Before MS measurement the\n(§10) (brief centrifugation after each step).\n(§11) Thermal protein profiling (TPP)\n(§12) The experiment was performed similarly to TPP-TR experiments described by Franken et al. with minor\n(§13) modifications.5 HEK293 cells were grown in 8 T175 flasks to approx. 80-90% confluency. Per replicate\n(§14) volume of 0.1 N HCl as vehicle control. Per condition two replicates were used, leading to a total of 8\n(§15) T175 flasks. The cells were washed with PBS, detached with accutase, the two flask per replicate\n(§16) condition combined and the cells pelletized (500 ×g, 3 min, r.t.). The medium was removed and each\n(§17) pellet (Cipro #1, Cipro #2, Ctrl. #1, Ctrl #2) washed twice with cold PBS. Each pellet was resuspended\n(§18) depending on the sample. The cell suspension of each sample was distributed into 10 PCR tubes\n(§19) (100 µL per tube), resulting in 10 stripes á 4 tubes (2×2 conditions, 10 temperature points). The PCR\n(§20) tubes were subjected to the temperature gradient using a PCR cycler.\n(§21) limitations, two separate programs had to be run to cover the desired temperature range (see\n(§22) Table S4). The PCR tubes were heat-treated according to the two programs for 3 min and directly snap\n(§23) frozen in liquid nitrogen.\n(§24) manufacturer instructions."}, "TRIM26": {"target": "T2, TRIM26 (Homo sapiens, UniProt Q12899)", "T2 construct": "endogenous in cells; host or cells: HEK293", "T2 sequence (Q12899 1-539)": "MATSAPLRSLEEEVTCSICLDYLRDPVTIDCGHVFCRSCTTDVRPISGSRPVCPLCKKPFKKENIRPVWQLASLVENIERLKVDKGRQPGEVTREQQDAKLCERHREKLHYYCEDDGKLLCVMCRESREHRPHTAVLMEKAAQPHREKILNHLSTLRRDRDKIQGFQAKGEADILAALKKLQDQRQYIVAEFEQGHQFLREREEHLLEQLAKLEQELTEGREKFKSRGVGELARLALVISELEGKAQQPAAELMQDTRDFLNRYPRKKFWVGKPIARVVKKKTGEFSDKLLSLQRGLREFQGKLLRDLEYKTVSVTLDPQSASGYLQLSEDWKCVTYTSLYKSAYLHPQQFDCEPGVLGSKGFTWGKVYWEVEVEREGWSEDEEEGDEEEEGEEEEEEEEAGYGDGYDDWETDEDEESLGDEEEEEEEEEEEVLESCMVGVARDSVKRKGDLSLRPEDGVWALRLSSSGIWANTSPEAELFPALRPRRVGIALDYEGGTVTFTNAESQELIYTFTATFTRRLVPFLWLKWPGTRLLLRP", "assay": "Thermal protein profiling (TPP) in intact HEK293 cells", "format": "cell-based", "details": "1 h", "experimental": "as §1, §2, §3, §4, §5, §6, §7, §8, §9, §10, §11, §12, §13, §14, §15, §16, §17, §18, §19, §20, §21, §22, §23, §24"}, "[1]": {"system": "AIFM1 knockout HEK293 cells", "assay": "Whole proteome analysis of AIFM1 knockout HEK293 cells", "format": "cell-based, human", "design": "dose or concentration left out as unconfirmed", "details": "[…] μM, 3 days, versus vehicle-treated AIFM1 knockout cells"}, "NUDT1": {"target": "NUDT1 (Homo sapiens, UniProt P36639)", "assay": "Thermal protein profiling (TPP) in intact HEK293 cells", "format": "cell-based", "design": "endogenous in cells; host or cells: HEK293", "details": "1 h", "experimental": "as §1, §2, §3, §4, §5, §6, §7, §8, §9, §10, §11, §12, §13, §14\nT175 flasks. The cells were washed with PBS, detached with accutase, the two flask per replicate […]"}, "HEK‐293 cells": {"system": "HEK‐293 cells", "assay": "Whole proteome analysis (LC-MS/MS, LFQ) of treated HEK-293 cells", "design": "regulation of ETC complex I and IV subunits: dose or concentration left out as unconfirmed", "details": "[…] μM, 3 h to 14 days, versus control"}},
  "note": "Read-outs that look alike come from different tables or passages of the source.",
  "data": [
    {"smiles": "O=C(O)c1cn(C2CC2)c2cc(N3CCNCC3)c(F)cc2c1=O", "note": "[Ciprofloxacin]", "values": [
      {"measurement": "ΔTm at 70 µM", "setting": "RAP1A; read-out: ΔTm Rep. 1", "value": 1.79, "unit": "°C"},
      {"measurement": "ΔTm at 70 µM", "setting": "RAP1A; read-out: ΔTm Rep. 2", "value": 2.89, "unit": "°C"},
      {"measurement": "ΔTm at 70 µM", "setting": "TRIM26; read-out: ΔTm Rep. 1", "value": 3.54, "unit": "°C"},
      {"measurement": "ΔTm at 70 µM", "setting": "TRIM26; read-out: ΔTm Rep. 2", "value": 3.88, "unit": "°C"},
      {"measurement": "regulation of ETC subunits in AIFM1 knockout cells", "setting": "[1]", "value": "only minor additional alterations of ETC subunits"},
      {"measurement": "ΔTm at 70 µM", "setting": "NUDT1; read-out: ΔTm Rep. 1", "value": 3.29, "unit": "°C"},
      {"measurement": "ΔTm at 70 µM", "setting": "NUDT1; read-out: ΔTm Rep. 2", "value": 3.4, "unit": "°C"},
      {"measurement": "regulation of ETC complex I and IV subunits", "setting": "HEK‐293 cells", "value": "pronounced and time‐dependent down‐regulation of both complexes"}
    ]}
  ]
}
